Results published in patent US7488855B2 (CJ Corporation, priority 2004, dated 2009).
In brackets after ≈: the same amount, converted by molar mass.

Assay: Solubility in ethyl acetate by fractionation and phase separation, HPLC analysis of the solvent layer
Type: physicochemical

OCC(O)CO [glycerol]
solubility at 2 h (organic solvent or mixture): 3000 to 6000 µg/mL (≈ 32.6 to 65.2 mM)

CC(O)CO (centres unmarked) [1,2-propanediol]
solubility in EA (ethyl acetate, mixture 10:1:2:2 dissolved at 30-100 g/L 1,3-propanediol, left alone for 2 hours, upper solvent layer analysed by HPLC): 5000 to 7000 µg/mL
